Where a name gives a salt, the structure may show the parent alone. Read-outs that look alike come from different tables or passages of the source. Square brackets hold non-standard residues; d marks the D form. Peptide text beside a SMILES is read from it. dPhe(F5) = N[C@H](Cc1c(F)c(F)c(F)c(F)c1F)C(=O)O; dBpa = N[C@H](Cc1ccc(C(=O)c2ccccc2)cc1)C(=O)O; dCha = N[C@H](CC1CCCCC1)C(=O)O
Experiments:
[1] = Pharmacokinetics of CBP501, combination study; type: in vivo, human; details: for Cl / AUC(0-inf) / Cmax / clearance / half-life: combination with cisplatin; for AUC(0-inf) / Cmax / clearance / half-life: human, in vivo
MSTO-211H cells = assay: Water soluble tetrazolium (WST) analysis; type: cell-based; details: 72 hours
Description: (§1) The medium was replaced 24 hr after treatment, the cells were incubated for an additional 48 hr, and WST-8 solution (Kishida Chemical Co., Osaka, Japan) was added to each well. After 4 hr of incubation at 37° C., the absorbance at 450 nm was measured by microplate reader (Molecular Devices, Calif.).

NCI-H226 cells = assay: Water soluble tetrazolium (WST) analysis; type: cell-based; details: 72 hours
Description: as §1

[2] = at the recommended dose; non-patent literature 15; read-out: Cmax in the human studies; cited from earlier work
[3] = CBP501 7.2 mg/m^2, Day 1, mean, N 3
[4] = CBP501 10.8 mg/m^2, Day 1, mean, N 5
[5] = CBP501 16.2 mg/m^2, Day 1, mean, N 3
[6] = CBP501 24.3 mg/m^2, Day 1, mean, N 2
[7] = CBP501 36.45 mg/m^2, Day 1, mean, N 5

N=C(N)NCCC[C@@H](NC(=O)[C@@H](CCCNC(=N)N)NC(=O)[C@@H](CCC(N)=O)NC(=O)[C@@H](CCCNC(=N)N)NC(=O)[C@@H](CCCNC(=N)N)NC(=O)[C@@H](CCCNC(=N)N)NC(=O)[C@@H](CC1CCCCC1)NC(=O)[C@@H](Cc1c(F)c(F)c(F)c(F)c1F)NC(=O)[C@@H](CO)NC(=O)[C@@H](Cc1c[nH]c2ccccc12)NC(=O)[C@@H](CO)NC(=O)[C@H](N)Cc1ccc(C(=O)c2ccccc2)cc1)C(=O)O [CBP501, H-(D)p-Benzoylphenylalanyl-(D)seryl-(D)tryptophyl-(D)seryl-(D)pentafluorophenylalanyl-(D)cyclohexylalanyl-(D)arginyl-(D)arginyl-(D)arginyl-(D)glutaminyl-(D)arginyl-(D)arginine acetate salt] (H-[dBpa][dS][dW][dS][dPhe(F5)][dCha][dR][dR][dR][dQ][dR][dR]-OH)
Cl [1, 3]: 2752 mL/h/m^2
Cl [1, 4]: 2198 mL/h/m^2
Cl [1, 5]: 2124 mL/h/m^2
Cl [1, 6]: 1217 mL/h/m^2
Cl [1, 7]: 971 mL/h/m^2
Cl ([1]; CBP501 […]^2, Day 1, mean, N 6): 2526 mL/h/m^2
AUC(0-inf) [1, 3]: 2820 ng·h/mL
Cmax [1, 3]: 1770 ng/mL
clearance [1, 3]: 1.25 mL/min/kg
half-life [1, 3]: 1.7 h
AUC(0-inf) [1, 4]: 5350 ng·h/mL
Cmax [1, 4]: 2550 ng/mL
clearance [1, 4]: 0.883 mL/min/kg
half-life [1, 4]: 1.7 h
AUC(0-inf) [1, 5]: 7640 ng·h/mL
Cmax [1, 5]: 3490 ng/mL
clearance [1, 5]: 0.9 mL/min/kg
half-life [1, 5]: 2.8 h
AUC(0-inf) [1, 6]: 20200 ng·h/mL
Cmax [1, 6]: 6830 ng/mL
clearance [1, 6]: 0.567 mL/min/kg
half-life [1, 6]: 4.1 h
AUC(0-inf) [1, 7]: 39400 ng·h/mL
Cmax [1, 7]: 9490 ng/mL
clearance [1, 7]: 0.417 mL/min/kg
half-life [1, 7]: 3.7 h
clearance ([1]; CBP501 […]^2, Day 1, mean, N 6): 1.05 mL/min/kg
half-life ([1]; CBP501 […]^2, Day 1, mean, N 6): 3.9 h
dose-proportionality of Cmax and AUC ([1]; in combination with cisplatin, over the dose range evaluated, acetate salt): showed dose-proportionality
cytotoxicity of cisplatin on addition of CBP501 (MSTO-211H cells): increased
cytotoxicity of cisplatin on addition of CBP501 (NCI-H226 cells): increased
Cmax [2]: ~4 µM

Reference: patent US20100112089A1, “PEPTIDE COMPOUND AND USE THEREOF” (Takeda Pharmaceutical Company Limited, priority 2008, published 2010)
